# Test results from patent publication US20220354835A1, “COMPOUNDS FOR DEGRADING TAU PROTEIN AGGREGATES AND USES THEREOF” (Aprinoia Therapeutics Limited, priority 2019, published 2022).
# Key:
# [1] = In vivo pharmacokinetic study of plasma and brain tissue; settings: mice, 1 mg/kg, intravenous
# Procedure: To determine whether the compounds of the present disclosure are capable of crossing the blood brain barrier (BBB), example compound 160313 was administered to mice in a pharmacokinetic study (1 mg/kg, intravenous) of plasma and brain tissue.
# Animal Husbandry: Mice were housed at animal room environment with ventilation 15 times/hour, lighting 12 hours/day, temperature 20° C. to 24° C. and humidity 40% to 70%. The study rooms were disinfected and cleaned prior to the start of the study and the operation area was cleaned after each dosing or sampling during the study conduct. All animals had free access to food and water during the study. The animals had access to Certified Rodent Diet and water ad libitum. The nutritional composition and levels of contaminants of the diet and impurities and contaminants of the water were monitored by third organization. The health status of the animals was evaluated in accordance with accepted animal husbandry procedures and deemed suitable for experimental use. […]
# Bioanalytical Method Development: The concentrations of compound in plasma and brain samples were determined using a liquid chromatography with tandem mass spectrometry (LC-MS/MS) based method.
# [2] = target: T1, heparin-induced aggregated tau (aTau), full-length 2N4R human Tau (Homo sapiens, UniProt P10636); assay: PBB5 competition assay; assay type: binding; settings: 0.12 μM aTau
# T1 construct: transformed with a full-length 2N4R tau expression plasmid; made in house; host or cells: E. coli BL21
# Procedure: (A) Expression and purification of human Tau: 1 mM IPTG (Sangon Biotech, Cat. No A100487) was used to induce production of tau by bacteria (BL21, Invitrogen, Cat. No C600003) transformed with a full-length 2N4R tau expression plasmid. After 3 hours, cell pellet was resuspended in lysis buffer (100 mM PIPES, 1 mM EGTA, 1 mM MgSO4, pH 6.8) and lysed by sonication followed by centrifugation (15,000 rpm, 15 min, 4° C.). The supernatant was then placed in a boiling water bath for 20 min, followed by centrifugation (15,000 rpm, 15 min, 4° C.). Supernatant was loaded onto a Q-Sepharose® Fast Flow column (GE healthcare, Cat. No 17-0510-01), the flow-through fraction was loaded onto an SP-Sepharose® Fast Flow column (GE healthcare, Cat. No 17-0729-01), and tau protein was eluted with elution buffer (100 mM PIPES, 1 M NaCl, 1 mM EGTA, 1 mM MgSO4, 0.2 M NaCl, pH 6.8). Collected fractions of tau-containing eluates were pooled, concentrated and dialyzed against HEPES buffer (25 mM HEPES, 0.1 mM EDTA, 0.5 mM DTT, 100 mM NaCl, pH 7.2) and stored at −80° C. in small aliquots until use. Protein concentration was determined by UV absorption.
# (B) Preparation of heparin-induced aggregated tau (aTau): 2 μM of tau prepared in 30 mM Tris-HCl, pH 7.5 buffer was incubated in tube with 15 μM heparin (Sigma, Cat. No H3149) at 37° C. for 24 hours.
# (E) PBBS competition assay: 2 μM of aTau was diluted to 0.12 μM by […] (pH 6.8) and then incubated with 0.1 μM 2-(4-(2-(methylamino)pyridine-5-yl)-1,3-butadiene-1-yl)benzothiazole-6-ol (PBB5) and serially diluted compound (three-fold serial dilution, from 10 to 0.00017 μM) in a 96-well plate (Corning, Cat. No 3573) at 37° C. for 1 hour. Fluorescence intensity (excitation/emission=530/690 nm) of PBB5 was read by microplate spectrometer (EnSpire 2300, PerkinElmer). Percentage of competition was calculated using the following equation: (Max−well of compound alone)/(Max−Min)*100%, where Max=(Tau+PBB5) signals−(buffer+PBB5) signals; and Min=(buffer+PBB5) signals−(buffer+PBB5) signals.
# The IC50 value of each compound was calculated with GraphPad Prism software using the “4 Parameter Logistic Model or Sigmoidal Dose-Response Model”:
# Y=Bottom+(Top−Bottom)/(1+(IC50/×)^HillSlope)
# T1 sequence (P10636 1-441 isoform P10636-8): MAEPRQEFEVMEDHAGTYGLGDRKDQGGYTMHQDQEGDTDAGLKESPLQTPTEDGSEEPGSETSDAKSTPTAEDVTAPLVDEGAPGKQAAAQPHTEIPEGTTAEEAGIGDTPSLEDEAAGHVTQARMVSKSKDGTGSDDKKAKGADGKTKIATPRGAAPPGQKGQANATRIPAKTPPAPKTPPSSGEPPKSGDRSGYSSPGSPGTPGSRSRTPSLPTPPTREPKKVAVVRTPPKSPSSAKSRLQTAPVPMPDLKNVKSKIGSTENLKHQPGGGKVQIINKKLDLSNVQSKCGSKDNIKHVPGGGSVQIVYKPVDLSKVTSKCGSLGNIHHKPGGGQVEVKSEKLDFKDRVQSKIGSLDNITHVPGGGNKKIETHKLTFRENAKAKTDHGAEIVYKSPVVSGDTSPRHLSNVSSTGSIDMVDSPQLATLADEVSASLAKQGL
structure (smiles),measurement,setting,value
"CN(C)c1ccc(-c2ccc(-c3nc4ccc(NCCOCCOc5ccc6c(c5)CN(C5CCC(=O)NC5=O)C6=O)cc4s3)cc2)cn1 (stereo not drawn) [Compound 160313, 3-[6-[2-[2-[[2-[4-[6-(dimethylamino)pyridin-3-yl]phenyl]-1,3-benzothiazol-6-yl]amino]ethoxy]ethoxy]-3-oxo-1H-isoindol-2-yl]piperidine-2,6-dione]","Cmax, Brain",[1],111 ng/mL
same,IC50,"[2]; 0.1 μM PBB5, 37° C. 1 hour, PBB5 fluorescence 530/690 nm",220 nM
same,Emax,"[2]; 0.1 μM PBB5, compound up to 10 μM, read-out: Competition Assay with PBB5: Bmax (%)",64%
